Assay [1] has as its system phosphorylation of the IRF-3 protein in MDA-MB-468 cells. The assay is described as follows: pIRF3 immunocytochemistry cell based assay. As to conditions: Homo sapiens; MDA-MB-468 cells, Poly(I:C) stimulation; read-out: pIRF3 IC50. In short, it runs like this:
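MDA-MB-468 cells got compounds (10-point, 3-fold from 10 uM) for 1 h at 37 °C, then 10 ug/ml Poly(I:C) for 2 h. Fixed, permeabilized cells were immunostained for pIRF3 with AlexaFluor488 and counterstained with PI. % phosphorylation was read by laser scanning cytometry, and IC50 curves were fitted.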

Another assay deals with T1, IKKε (Homo sapiens, UniProt Q14164).
T1 sequence (Q14164 1-716): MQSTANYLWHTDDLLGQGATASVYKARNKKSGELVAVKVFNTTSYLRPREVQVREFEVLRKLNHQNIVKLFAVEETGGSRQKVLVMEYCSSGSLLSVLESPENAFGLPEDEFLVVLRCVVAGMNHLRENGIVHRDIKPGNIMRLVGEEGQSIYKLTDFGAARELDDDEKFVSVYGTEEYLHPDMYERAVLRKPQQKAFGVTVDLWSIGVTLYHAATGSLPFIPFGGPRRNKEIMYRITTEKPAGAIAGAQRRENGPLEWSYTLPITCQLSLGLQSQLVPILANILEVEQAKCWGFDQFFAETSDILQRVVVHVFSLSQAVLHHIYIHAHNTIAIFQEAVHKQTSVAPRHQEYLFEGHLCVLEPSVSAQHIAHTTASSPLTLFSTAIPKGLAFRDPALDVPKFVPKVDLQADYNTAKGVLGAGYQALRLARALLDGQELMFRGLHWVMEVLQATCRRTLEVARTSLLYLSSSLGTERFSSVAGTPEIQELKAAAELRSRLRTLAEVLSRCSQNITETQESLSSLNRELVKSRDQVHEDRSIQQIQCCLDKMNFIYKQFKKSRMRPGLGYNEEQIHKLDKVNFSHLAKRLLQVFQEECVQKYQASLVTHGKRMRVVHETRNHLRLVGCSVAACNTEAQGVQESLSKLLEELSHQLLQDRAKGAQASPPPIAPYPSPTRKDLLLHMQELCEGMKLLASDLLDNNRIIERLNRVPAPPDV
Nature of the assay: IKKe Biochemical Assay. As to conditions: read-out: IKKε IC50. In short, it runs like this:
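Recombinant IKKε and substrate were incubated with compound (10-point 1:4 series, top 30 uM final, 1% DMSO) for 90 min at 25° C, then stopped. Substrate-to-product conversion was read by LabChip microfluidic mobility shift; 10 uM staurosporine served as full-inhibition wells.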

The next assay addresses T2, TBK1 (Homo sapiens, UniProt Q9UHD2).
T2 sequence (Q9UHD2 1-729): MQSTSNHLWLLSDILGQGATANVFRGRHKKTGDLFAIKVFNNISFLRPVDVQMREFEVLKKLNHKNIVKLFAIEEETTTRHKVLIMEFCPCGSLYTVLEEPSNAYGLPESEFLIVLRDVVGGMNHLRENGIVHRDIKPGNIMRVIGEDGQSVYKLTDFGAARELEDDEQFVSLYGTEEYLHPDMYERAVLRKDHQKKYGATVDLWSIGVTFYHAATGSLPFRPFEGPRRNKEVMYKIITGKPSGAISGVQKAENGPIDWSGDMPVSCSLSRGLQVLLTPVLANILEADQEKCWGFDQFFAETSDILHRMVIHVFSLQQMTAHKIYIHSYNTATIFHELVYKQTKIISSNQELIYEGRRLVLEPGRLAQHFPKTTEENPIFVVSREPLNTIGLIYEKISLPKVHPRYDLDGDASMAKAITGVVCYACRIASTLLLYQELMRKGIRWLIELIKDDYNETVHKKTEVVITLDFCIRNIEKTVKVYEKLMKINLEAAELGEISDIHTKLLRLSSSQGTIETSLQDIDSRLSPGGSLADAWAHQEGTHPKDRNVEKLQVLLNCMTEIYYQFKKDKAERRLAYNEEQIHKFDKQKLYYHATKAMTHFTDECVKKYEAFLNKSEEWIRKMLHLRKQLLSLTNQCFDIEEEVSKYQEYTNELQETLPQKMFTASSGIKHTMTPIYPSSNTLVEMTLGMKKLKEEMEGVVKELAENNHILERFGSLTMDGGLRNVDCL
Nature of the assay: TBK Biochemical Assay. As to conditions: read-out: TBK1 IC50. In short, it runs like this: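 TBK1 enzyme and substrate incubated with compounds (10-point 1:4 dilution, top 30 uM final, 1% DMSO) for 90 min at 25° C, then stopped. Substrate/product peaks read by microfluidic mobility-shift (Caliper LabChip); 10 uM staurosporine as full-inhibition control.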

In patent US10428080B2, “TBK/IKK inhibitor compounds and uses thereof” (Merck Patent GmbH, priority 2015, dated 2019) one finds IC50 data, which are given here for five compounds.

Consider `COc1cc(C(=O)N2C[C@@H]3C[C@H]2CN3C)ccc1-c1cc2nccc(-c3ccc(NC4CCOCC4)c(C#N)c3)c2o1` [Compound 515], for which the half-maximal inhibitory concentration (IC50) (in assay [1]; on IKKε; at TBK1) was < 0.1 µM each time.
Take `COc1cc(C(=O)NCC(C)(C)CN(C)C)ccc1-c1cc2nccc(-c3ccc(NC4CCOCC4)c(C#N)c3)c2o1` [Compound 516, 4-{7-[3-Cyano-4-(tetrahydro-pyran-4-ylamino)-phenyl]-furo[3,2-b]pyridin-2-yl}-N-(3-dimethylamino-2,2-dimethyl-propyl)-3-methoxy-benzamide]: the IC50 (in assay [1]; at IKKε; on TBK1) was < 0.1 µM each time.
`COc1cc(C(=O)N2C[C@H]3C[C@@H]2CN3C)ccc1-c1cc2nccc(-c3ccc(NC4CCOCC4)c(C#N)c3)c2o1` [Compound 517]: the IC50 (in assay [1]; on IKKε; on TBK1) was < 0.1 µM each time.
Turning to `COc1cc(C(=O)N2C3CCCC2CC3)ccc1-c1cc2nccc(-c3ccc(NC4CCOCC4)c(C#N)c3)c2o1` [Compound 519], the concentration for half-maximal inhibition (IC50) (as a rule, the concentration that inhibits the measured activity by half) in assay [1] was 0.1 to 1 µM; on IKKε it was < 0.1 µM; at TBK1 it was < 0.1 µM.
In the case of `COc1cc(C(=O)N(C)C)ccc1-c1cc2nccc(-c3ccc(NC4CCNC4)c(C#N)c3)c2o1` (stereo not drawn) [Compound 521], the IC50 (in assay [1]; at IKKε; on TBK1) was < 0.1 µM in each case.
